Patent publication US11377441B2, “Covalent inhibitors of KRAS” (Araxes Pharma LLC, priority 2017, dated 2022)

Target: T1, KRAS G12C 1-169, his-tagged protein, GDP-loaded (Homo sapiens, UniProt P01116, G12C)
T1 construct: KRAS G12C 1-169, his-tagged protein, GDP-loaded
Assay: Biochemical assay: covalent modification of KRAS G12C measured by mass spectrometry (RapidFire/TOF or Q-Exactive)
Format: binding
Conditions: covalent binding to (modification of) KRAS G12C after a ten minute incubation period
How it was run: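 Intact-mass readout (TOF or Q-Exactive, charge-envelope deconvolution) gives percent covalent adduct from modified and unmodified species. Compound at 10, 30 or 100 μM was incubated at room temperature for 10 min to 24 h with 2 μM or 0.5 μM GDP-bound KRAS G12C 1-169 in Hepes/NaCl/MgCl2 buffer, then acid-quenched.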

Row | SMILES | Binding %
1 | C=CC(=O)N1C[C@H](C)N(c2nc(OCCN3CCC(F)(F)C3)nc3c(F)c(-c4c(C)ccc5[nH]nc(C6CC6)c45)c(Cl)cc23)C[C@H]1C (atropisomer, axis not shown) [Compound 117, 1-((2R,5S)-4-((R)-6-chloro-7-(3-cyclopropyl-5-methyl-1H-indazol-4-yl)-2-(2-(3,3-difluoropyrrolidin-1-yl)ethoxy)-8-fluoroquinazolin-4-yl)-2,5-dimethylpiperazin-1-yl)prop-2-en-1-one] | +++ (+++ indicates binding activity greater than 80%)
2 | C=CC(=O)N1C[C@H](C)N(c2nc(NCCC(=O)N(C)C)nc3c(F)c(-c4c(C)ccc5[nH]nc(N)c45)c(Cl)cc23)C[C@H]1C [Compound 62, 3-(4-((2S,5R)-4-acryloyl-2,5-dimethylpiperazin-1-yl)-7-(3-amino-5-methyl-1H-indazol-4-yl)-6-chloro-8-fluoroquinazolin-2-ylamino)-N,N-dimethylpropanamide] | +++ (+++ indicates binding activity greater than 80%)
3 | C=CC(=O)N1C[C@H](C)N(c2nc(N3CC(NC)C3)nc3c(F)c(-c4c(C)ccc5cnn(C6CC6)c45)c(Cl)cc23)C[C@H]1C [Compound 148, 1-((2R,5S)-4-(6-chloro-7-(1-cyclopropyl-6-methyl-1H-indazol-7-yl)-8-fluoro-2-(3-(methylamino)azetidin-1-yl)quinazolin-4-yl)-2,5-dimethylpiperazin-1-yl)prop-2-en-1-one] | +++ (+++ indicates binding activity greater than 80%)
4 | [2H]C([2H])([2H])N(C1CN(c2nc(N3C[C@@H](C)N(C(=O)C=C)C[C@@H]3C)c3cc(Cl)c(-c4c(C)ccc5[nH]nc(C)c45)c(F)c3n2)C1)C([2H])([2H])[2H] (atropisomer, axis not shown) [Compound 221, 1-((2R,5S)-4-((R)-6-chloro-7-(3,5-dimethyl-1H-indazol-4-yl)-2-(3-(di-perdeuteromethylamino)azetidin-1-yl)-8-fluoroquinazolin-4-yl)-2,5-dimethylpiperazin-1-yl)prop-2-en-1-one] | +++ (+++ indicates binding activity greater than 80%)
5 | C=CC(=O)N1C[C@H](C)N(c2nc(N3CC(N(C)C)C3)nc3c(F)c(-c4c(C)ccc5cnn(C6CC6)c45)c(C(F)(F)F)cc23)C[C@H]1C [Compound 173, 1-((2R,5S)-4-(7-(1-cyclopropyl-6-methyl-1H-indazol-7-yl)-2-(3-(dimethylamino)azetidin-1-yl)-8-fluoro-6-(trifluoromethyl)quina-zolin-4-yl)-2,5-dimethylpiperazin-1-yl)prop-2-en-1-one] | +++ (+++ indicates binding activity greater than 80%)
6 | C=CC(=O)N1C[C@H](C)N(c2nc(N3CC(N(C)C)C3)nc3c(F)c(-c4c(C)ccc5[nH]nc(N)c45)c(Cl)cc23)C[C@H]1C (atropisomer, axis not shown) [Compound 35, 1-((2R,5S)-4-((R)-7-(3-amino-5-methyl-1H-indazol-4-yl)-6-chloro-2-(3-(dimethylamino)azetidin-1-yl)-8-fluoroquinazolin-4-yl)-2,5-dimethylpiperazin-1-yl)prop-2-en-1-one] | +++ (+++ indicates binding activity greater than 80%)
7 | C=CC(=O)N1C[C@H](C)N(c2nc(N3CC(NC)C3)nc3c(F)c(-c4c(C)ccc5[nH]nc(C)c45)c(Cl)cc23)C[C@H]1C [Compound 140, 1-((2R,5S)-4-(6-chloro-7-(3,5-dimethyl-1H-indazol-4-yl)-8-fluoro-2-(3-(methylamino)azetidin-1-yl)quinazolin-4-yl)-2,5-dimethylpiperazin-1-yl)prop-2-en-1-one] | +++ (+++ indicates binding activity greater than 80%)
8 | C=CC(=O)N1CCN(c2nc(N3CC(N(C)C)C3)nc3c(F)c(-c4c(C)ccc5cnn(C)c45)c(Cl)cc23)CC1CC#N (stereo not shown) [Compound 269, 2-(1-acryloyl-4-(6-chloro-7-(1,6-dimethyl-1H-indazol-7-yl)-2-(3-(dimethylamino)azetidin-1-yl)-8-fluoroquinazolin-4-yl)piperazin-2-yl)acetonitrile] | +++ (+++ indicates binding activity greater than 80%)
9 | C=CC(=O)N1C[C@H](C)N(c2nc(N3CC(NC)C3)nc3c(F)c(-c4c(C)ccc5[nH]nc(C)c45)c(Cl)cc23)C[C@H]1C (atropisomer, axis not shown) [Compound 220, 1-((2R,5S)-4-((R)-6-chloro-7-(3,5-dimethyl-1H-indazol-4-yl)-8-fluoro-2-(3-(methylamino)azetidin-1-yl)quinazolin-4-yl)-2,5-dimethylpiperazin-1-yl)prop-2-en-1-one] | +++ (+++ indicates binding activity greater than 80%)
10 | C=CC(=O)N1C[C@H](C)N(c2nc(N3CC(N(C)C)C3)nc3c(F)c(-c4c(C)ccc5[nH]nc(Br)c45)c(Cl)cc23)C[C@H]1C [Compound 40, 1-((2R,5S)-4-(7-(3-bromo-5-methyl-1H-indazol-4-yl)-6-chloro-2-(3-(dimethylamino)azetidin-1-yl)-8-fluoroquinazolin-4-yl)-2,5-dimethylpiperazin-1-yl)prop-2-en-1-one] | +++ (+++ indicates binding activity greater than 80%)
11 | C=CC(=O)N1[C@H](C)CN(c2nc(N3CC(N(C)C)C3)nc3c(F)c(-c4c(C)ccc5[nH]nc(N)c45)c(Cl)cc23)C[C@@H]1C [Compound 41, 1-((2S,6R)-4-(7-(3-amino-5-methyl-1H-indazol-4-yl)-6-chloro-2-(3-(dimethylamino)azetidin-1-yl)-8-fluoroquinazolin-4-yl)-2,6-dimethylpiperazin-1-yl)prop-2-en-1-one] | +++ (+++ indicates binding activity greater than 80%)
12 | C=CC(=O)N1C[C@H](C)N(c2nc(N3CC(N(C)C)C3)nc3c(F)c(-c4c(C)ccc5cnn(C)c45)c(Cl)cc23)C[C@H]1C (atropisomer, axis not shown) [Compound 87, 1-((2R,5S)-4-((R)-6-chloro-7-(1,6-dimethyl-1H-indazol-7-yl)-2-(3-(dimethylamino)azetidin-1-yl)-8-fluoroquinazolin-4-yl)-2,5-dimethylpiperazin-1-yl)prop-2-en-1-one] | +++ (+++ indicates binding activity greater than 80%)
13 | C=CC(=O)N1CCN(c2nc(N3CC(N(C)C)C3)nc3c(F)c(-c4c(C)ccc5[nH]nc(N)c45)c(Cl)cc23)[C@@H](C)C1 [Compound 48, 1-((3S)-4-(7-(3-amino-5-methyl-1H-indazol-4-yl)-6-chloro-2-(3-(dimethylamino)azetidin-1-yl)-8-fluoroquinazolin-4-yl)-3-methylpiperazin-1-yl)prop-2-en-1-one] | +++ (+++ indicates binding activity greater than 80%)
14 | C=CC(=O)N1C[C@H](C)N(c2nc(N3CC(NC)C3)nc3c(F)c(-c4c(C)ccc5cnn(C6CC6)c45)c(Cl)cc23)C[C@H]1C (atropisomer, axis not shown) [Compound 207, 1-((2R,5S)-4-((S)-6-chloro-7-(1-cyclopropyl-6-methyl-1H-indazol-7-yl)-8-fluoro-2-(3-(methylamino)azetidin-1-yl)quinazolin-4-yl)-2,5-dimethylpiperazin-1-yl)prop-2-en-1-one] | + (+ indicates binding activity greater than 0% and up to 50%)
15 | C=CC(=O)N1C[C@H](C)N(c2nc(OCCN3CCC(F)(F)C3)nc3c(F)c(-c4c(C)ccc5[nH]nc(C6CC6)c45)c(Cl)cc23)C[C@H]1C (atropisomer, axis not shown) [Compound 116, 1-((2R,5S)-4-((S)-6-chloro-7-(3-cyclopropyl-5-methyl-1H-indazol-4-yl)-2-(2-(3,3-difluoropyrrolidin-1-y)ethoxy)-8-fluoroquinazolin-4-yl)-2,5-dimethylpiperazin-1-yl)prop-2-en-1-one] | + (+ indicates binding activity greater than 0% and up to 50%)
16 | C=CC(=O)N1CCN(c2nc(N3CC(N(C)C)C3)nc3c(F)c(-c4c(C)ccc5[nH]nc(N)c45)c(Cl)cc23)CC1 (atropisomer, axis not shown) [Compound 37, (R)-1-(4-(7-(3-amino-5-methyl-1H-indazol-4-yl)-6-chloro-2-(3-(dimethylamino)azetidin-1-yl)-8-fluoroquinazolin-4-yl)piperazin-1-yl)prop-2-en-1-one] | +++ (+++ indicates binding activity greater than 80%)
17 | C=CC(=O)N1C[C@H](C)N(c2nc(NCCC(=O)N3CCCC3)nc3c(F)c(-c4c(C)ccc5[nH]nc(N)c45)c(Cl)cc23)C[C@H]1C [Compound 60, 1-((2R,5S)-4-(7-(3-amino-5-methyl-1H-indazol-4-yl)-6-chloro-8-fluoro-2-(3-oxo-3-(pyrrolidin-1-yl)propylamino)quina-zolin-4-yl)-2,5-dimethylpiperazin-1-yl)prop-2-en-1-one] | +++ (+++ indicates binding activity greater than 80%)
18 | C=CC(=O)N1C[C@@H](C)N(c2nc(N3CC(N(C)C)C3)nc3c(F)c(-c4c(C)ccc5[nH]nc(C6CC6)c45)c(Cl)cc23)C[C@H]1C (atropisomer, axis not shown) [Compound 250, 1-((2R,5R)-4-((S)-6-chloro-7-(3-cyclopropyl-5-methyl-1H-indazol-4-yl)-2-(3-(dimethylamino)azetidin-1-yl)-8-fluoroquinazolin-4-yl)-2,5-dimethylpiperazin-1-yl)prop-2-en-1-one] | + (+ indicates binding activity greater than 0% and up to 50%)
19 | C=CC(=O)N1C[C@H](C)N(c2nc(C#CCN(C)C)nc3c(F)c(-c4c(C)ccc5cnn(C)c45)c(Cl)cc23)C[C@H]1C [Compound 233, 1-((2R,5S)-4-(6-chloro-7-(1,6-dimethyl-1H-indazol-7-yl)-2-(3-(dimethylamino)prop-1-ynyl)-8-fluoroquinazolin-4-yl)-2,5-dimethylpiperazin-1-yl)prop-2-en-1-one] | +++ (+++ indicates binding activity greater than 80%)
